Data as given in patent US9540350B2, “1-substituted, 4-(substituted phenoxymethyl)-1,2,3-triazole compounds with antifungal properties and methods for preparation thereof” (FDC LIMITED, priority 2013, dated 2017).
≈ marks a conversion by molar mass, not a printed value. Like-named read-outs stand apart in the source and are kept apart here.

Columns and labels:
[1] = tested on: C. albicans ATCC 24433; test: Antifungal susceptibility, broth dilution MIC (CLSI M27-A2); format: cell-based; settings: Candida albicans, read-out: Activity against organisms (MIC50) Ca01
Protocol: (§1) The compounds of Formula 1 were tested for antifungal activity against Candida albicans, C. glabrata, C. krusei, C. tropicalis, Cryptococcus neoformans, Aspergillus fumigatus, A. niger and Fusarium proliferatum. In vitro evaluation of antifungal activity was performed by determining the minimum inhibitory concentration (MIC) following standard methods (CLSI: Reference method for broth dilution antifungal susceptibility testing of yeasts; Approved standard, second edition M27-A2, 2002; CLSI: Reference method for broth dilution antifungal susceptibility testing of filamentous fungi; Approved standard M38-A, 2002). Anti-fungal susceptibility testing of these anti-fungal compounds was done by broth dilution method using RPMI 1640 medium with MOPS buffer. Known anti-fungal agent fluconazole was used as positive control. End points were determined after 48 hours visually and by using spectrophotometer wherever necessary. Different dilutions were tried and various sets of experiments performed. The activity parameters are enumerated in Table 4.

[2] = tested on: C. glabrata ATCC 90030; test: as above; format: cell-based, Candida glabrata; settings: Nakaseomyces glabratus, read-out: Activity against organisms (MIC50) Cg01
Protocol: as §1

[3] = tested on: C. krusei ATCC 6258; test: as above; format: cell-based, Candida krusei; settings: Pichia kudriavzevii, read-out: Activity against organisms (MIC50) Ck01
Protocol: as §1

[4] = tested on: C. tropicalis ATCC 750; test: as above; format: cell-based, Candida tropicalis; settings: for MIC50: Candida tropicalis, read-out: Activity against organisms (MIC50) Ct01
Protocol: as §1

[5] = tested on: C. neoformans ATCC 34664; test: as above; format: cell-based, Cryptococcus neoformans; settings: for MIC50: Cryptococcus neoformans, read-out: Activity against organisms (MIC50) Cn01
Protocol: as §1

[6] = tested on: A. fumigatus ATCC 46645; test: Antifungal susceptibility, broth dilution MIC (CLSI M38-A); format: cell-based; settings: Aspergillus fumigatus, read-out: Activity against organisms (MIC50) Afm01
Protocol: as §1

[7] = tested on: A. niger ATCC 16404; test: as above; format: cell-based; settings: Aspergillus niger, read-out: Activity against organisms (MIC50) An01
Protocol: as §1

[8] = tested on: F. proliferatum ATCC 10052; test: as above; format: cell-based; settings: Fusarium proliferatum, read-out: Activity against organisms (MIC50) Fp01
Protocol: as §1

[9] = ATCC24433, C. albicans ATCC 24433, broth dilution, RPMI 1640 with MOPS, 48 hours
[10] = ATCC90030, C. glabrata ATCC 90030, broth dilution, RPMI 1640 with MOPS, 48 hours
[11] = ATCC6258, C. krusei ATCC 6258, broth dilution, RPMI 1640 with MOPS, 48 hours
[12] = ATCC750, C. tropicalis ATCC 750, broth dilution, RPMI 1640 with MOPS, 48 hours
[13] = ATCC34664, C. neoformans ATCC 34664, broth dilution, RPMI 1640 with MOPS, 48 hours
[14] = ATCC46645, A. fumigatus ATCC 46645, broth dilution, RPMI 1640 with MOPS, 48 hours
[15] = ATCC16404, A. niger ATCC 16404, broth dilution, RPMI 1640 with MOPS, 48 hours
[16] = ATCC10052, F. proliferatum ATCC 10052, broth dilution, RPMI 1640 with MOPS, 48 hours

MIC50 [1, 9] [µg/mL]	MIC50 [2, 10] [µg/mL]	MIC50 [3, 11] [µg/mL]	MIC50 [4, 12] [µg/mL]	MIC50 [5, 13] [µg/mL]	MIC50 [6, 14] [µg/mL]	MIC50 [7, 15] [µg/mL]	MIC50 [8, 16] [µg/mL]	Structure (SMILES)	MIC50 ([1]; ATCC24433, 48 h) [µg/mL]	MIC50 ([2]; ATCC90030, 48 h) [µg/mL]	MIC50 ([3]; ATCC6258, 48 h) [µg/mL]	MIC50 ([4]; ATCC750, 48 h) [µg/mL]	MIC50 ([5]; ATCC34664, 48 h) [µg/mL]	MIC50 ([6]; ATCC46645, 48 h) [µg/mL]	MIC50 ([7]; ATCC16404, 48 h) [µg/mL]	MIC50 ([8]; ATCC10052, 48 h) [µg/mL]	antifungal activity against Candida tropicalis (in words) ([4]; summary statement)	antifungal activity against Cryptococcus neoformans (in words) ([5]; summary statement)
> 32	> 32	> 32	> 32	> 32	> 32	> 32	> 32	COc1ccc(/C=C/C(=O)c2ccc(O)cc2)cc1 [Compound 9A-2]										
> 4	> 4	> 4	> 4	> 4	> 4	> 4	> 4	COc1ccc(C(=O)/C=C/c2ccc(Cl)cc2)cc1 [Compound 9A-3]										
								O=C(/C=C/c1ccc(Cl)cc1)c1ccc(O)cc1 [Compound 9A-4]	> 8	32 (≈ 124 µM)	> 8	> 8	> 8	> 8	> 8	> 8		
32 (≈ 133 µM)	16 (≈ 66.6 µM)	> 32	> 32	32 (≈ 133 µM)	16 (≈ 66.6 µM)	8 (≈ 33.3 µM)	> 32	O=C(/C=C/c1ccc(O)cc1)c1ccc(O)cc1 [Compound 9A-5]										
> 32	> 32	> 32	> 32	> 32	> 32	> 32	> 32	O=C(/C=C/c1cccs1)c1ccc(O)cc1 [Compound 10A-1]										
> 8	> 8	> 8	> 8	> 8	> 8	> 8	> 8	COc1ccc(C(=O)/C=C/c2cccs2)cc1 [Compound 10A-2]										
0.25 (≈ 0.816 µM)	1 (≈ 3.27 µM)	32 (≈ 104 µM)	1 (≈ 3.27 µM)	2 (≈ 6.53 µM)	> 128	> 128	> 128	OC(Cn1cncn1)(Cn1cncn1)c1ccc(F)cc1F [Fluconazole, reference compound]									weaker antifungal activity	weaker antifungal activity

Structure (SMILES)	MIC50 [1, 9] [µg/mL]	MIC50 [2, 10] [µg/mL]	MIC50 [3, 11] [µg/mL]	MIC50 [4, 12] [µg/mL]	MIC50 [5, 13] [µg/mL]	MIC50 [6, 14] [µg/mL]	MIC50 [7, 15] [µg/mL]	MIC50 [8, 16] [µg/mL]	MIC50 ([1]; ATCC24433, 48 h) [µg/mL]	MIC50 ([2]; ATCC90030, 48 h) [µg/mL]	MIC50 ([3]; ATCC6258, 48 h) [µg/mL]	MIC50 ([4]; ATCC750, 48 h) [µg/mL]	MIC50 ([5]; ATCC34664, 48 h) [µg/mL]	MIC50 ([6]; ATCC46645, 48 h) [µg/mL]	MIC50 ([7]; ATCC16404, 48 h) [µg/mL]	MIC50 ([8]; ATCC10052, 48 h) [µg/mL]	antifungal activity against Candida tropicalis (in words) ([4]; summary statement)	antifungal activity against Cryptococcus neoformans (in words) ([5]; summary statement)
CCCN1CCN(c2ccc(C(C)=O)cc2)CC1 [Compound 11A-1]	> 128	> 128	> 128	> 128	> 128	> 128	> 128	> 128										
CCCCN1CCN(c2ccc(C(C)=O)cc2)CC1 [Compound 11A-2]	> 64	> 64	> 64	> 64	> 64	> 64	> 64	> 64										
